13 compounds from patent publication US20250136607A1 (REGOR PHARMACEUTICALS, INC., priority 2021, published 2025) can be followed below.

The test system of experiment [1] is Citrullinated Histone H3 in dHL-60 cells (differentiated HL-60). Kind of experiment: dHL-60 Cit-H3 ELISA assay. The format is cell-based, human. The following applies: Homo sapiens, HL-60, 3 h, stimulation with 25 μM A23187 for 3 h, read-out: Average IC50 Abs. Here is the method:
Cell culture: HL-60 cells were grown in IMDM+20% FBS+1% PS. The suspension cells were split into 1:5 with fresh media every 2-3 days to maintain cell density between 1×10^5 to 1×10^6 viable cells/mL. HL-60 cells differentiation: HL-60 cells were diluted to 1×10^5 cells/mL and differentiated into neutrophil-like cells with 100 mM DMF treatment for 72 hours in flask at 37° C., 5% CO2. dHL-60 Cells plating: • 1) HL-60 cells were collected, and the plate was centrifuged at 1000 rpm for 5 min. • 2) The HL-60 cells were diluted to 1.25×10^6 cells/mL and plated into a 96-well plate with 80 μL/well (i.e., 1×10^5/well). The plate was then incubated in the incubator (5% CO2, 37° C.) for 30 min to allow cells to adhere. Compound treatment: • 1) Preparation of compound serial dilution (source plate 500×, final DMSO concentration: 0.2%): briefly, compounds were dissolved in 100% DMSO to a concentration of 20 mM (the stock solution) and a 3-fold serial dilution with 8-point doses was performed. • 2) A 10× compound solution was pipetted up and down; and 10 μL/well of compounds were added into each well and incubated for 30 min. Stimulation with 25 μM A23187: • 1) A solution of A23187 (250 μM) in complete IMDM (IMDM+10% FBS+1% PS) containing 150 U/mL S7 Nuclease was prepared. The obtained solution was added 10 μL/well into each well and incubated for 3 h in the incubator (5% CO2, 37° C.). • 2) The dHL-60 cells treated with 10 μL/well complete IMDM without A23187 worked as negative control. Sample preparation: • 1) EDTA (0.5 M, 2 μL/well) were added to all the wells to stop the reaction. • 2) The plate was centrifuged at 1000 rpm for 5 min to collect supernatant. • 3) The supernatant was then diluted at least 1:2 before adding to the ELISA plate for citrullinated H3 analysis.
The standard was reconstituted with 2 mL of Assay buffer to 500 ng/mL. The reconstituted standard was relatively unstable at 4° C. and should be used within 3 hr after reconstitution.
• 1) 100 μL of the standards or diluted samples were added to the wells on the ELISA plate. • 2) The plate was covered with Cover Sheet and incubated for 2 h at room temperaturert on an orbital shaker.
On the day of the assay, the reagent was thawed at room temperaturert. For one plate, 1.2 mL of HRP Conjugate were diluted into 10.8 mL of assay buffer. A diluted HRP Conjugate was prepared shortly before use.
• 1) The wells were empties and rinsed four times with 1× wash buffer with 300 μL/well (Low speed). The plate was inverted between wash steps to empty the plate. After the last wash, the inverted plate was gently tapped on absorbent paper to remove the residual wash buffer. • 2) 100 μL of the HRP Conjugate working solution were added to each well of the plate. • 3) The plate was covered with cover sheet and incubated for 1 h at RT on an orbital shaker.
• 1) The wells were empties and rinsed four times with 1× wash buffer with 300 μL/well (low speed). The plate was inverted between wash steps to empty the plate. […] 100 uL of HRP STOP solution were added to each well of the plate.
• 1) Wipe the bottom of the plate with a clean tissue to remove fingerprints, dirt, etc. • 2) Read the plate at a wavelength of 450 nm.
The percent (%) inhibition at each concentration of compound was calculated based on and relative to the signal in the HPE and ZPE wells contained within each assay plate. The HPE wells worked as […], and the ZPE wells didn't contain any compound but rather DMSO (final concentration=0.1%) as […]. The concentrations and % inhibition values for tested compounds were plotted and the concentration of compound required for 50% inhibition (IC50) was determined with a Four-parameter logistic dose response equation. The endpoint value (IC50) for the reference peptide/compound was evaluated in each experiment as a quality control measure. If the endpoint value is within 3-fold of the expected value then the experiment is deemed acceptable. […]
(ELISA stands for enzyme-linked immunosorbent assay.)

For experiment [2], the target named is Protein arginine deiminase 4 (PAD4) (Homo sapiens, UniProt Q9UM07). In words: PAD4 ammonia release assay. The format is biochemical. A digest of the protocol: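 PAD4 (20 nM, 2× working solution) was preincubated with compound for 15 min at RT in 100 mM HEPES pH 8.0, 2 mM CaCl2, 50 mM NaCl, 0.1 mM TCEP, BSA at 1.25% DMSO. BAEE (600 μM, 2× mix) reacted 60 min, then OPA/DTT/EDTA detection for 120 min. IC50 came from a 4-parameter fit, normalized to 50 μM reference (100%) and DMSO (0%).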

Where [3] appears, read: PAD4 ammonia release assay, BAEE substrate, 60 min at RT, read-out: Average IC50 Abs.

Where two headings read alike, the source gives them in different places. Bounds are passed on as bounds.

Usually IC50 stands for the midpoint of a concentration-inhibition curve.

Protein arginine deiminase 4 (PAD4), sequence (Q9UM07 whole entry): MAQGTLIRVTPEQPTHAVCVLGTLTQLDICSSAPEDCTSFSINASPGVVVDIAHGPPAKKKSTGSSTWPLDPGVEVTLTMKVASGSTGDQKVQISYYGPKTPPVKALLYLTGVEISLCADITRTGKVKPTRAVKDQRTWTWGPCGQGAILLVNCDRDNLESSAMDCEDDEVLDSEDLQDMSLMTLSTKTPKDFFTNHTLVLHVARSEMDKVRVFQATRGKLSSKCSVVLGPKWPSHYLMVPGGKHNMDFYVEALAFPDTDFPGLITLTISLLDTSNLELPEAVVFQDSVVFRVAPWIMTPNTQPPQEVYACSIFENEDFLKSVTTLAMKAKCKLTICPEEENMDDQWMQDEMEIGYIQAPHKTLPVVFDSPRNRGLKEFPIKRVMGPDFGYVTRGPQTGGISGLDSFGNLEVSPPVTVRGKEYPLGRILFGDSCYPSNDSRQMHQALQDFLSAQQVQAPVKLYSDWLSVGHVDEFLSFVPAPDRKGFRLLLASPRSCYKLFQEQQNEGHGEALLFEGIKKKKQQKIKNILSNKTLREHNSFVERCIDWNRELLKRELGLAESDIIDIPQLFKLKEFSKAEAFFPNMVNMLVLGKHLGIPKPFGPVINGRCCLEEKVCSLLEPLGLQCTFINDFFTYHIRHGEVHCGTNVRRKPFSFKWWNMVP

In the case of `COc1cc(C(=O)N2C[C@H](N)C[C@@H](F)C2)cc2nc(-c3cc4cccc5c4n3CCN5CCCO)n(CC(F)(F)F)c12` [Example 23, ((3R,5R)-3-amino-5-fluoropiperidin-1-yl)(2-(1-(3-hydroxypropyl)-2,3-dihydro-1H-pyrrolo[1,2,3-de]quinoxalin-5-yl)-7-methoxy-1-(2,2,2-trifluoroethyl)-1H-benzo[d]imidazol-5-yl)methanone], the 50% inhibitory concentration (IC50) in experiment [1] and in experiment [2] (setting [3]) was 100 to 500 nM each time.

For the compound `CCC1CNc2cccc3cc(-c4nn5cc(C(=O)N6C[C@H]7CC[C@@H]6[C@@H]7N)cc(F)c5c4C)n1c23` (stereo partly drawn) [Example 140, [(1R,4R,7R)-7-amino-2-azabicyclo[2.2.1]heptan-2-yl]-[2-(11-ethyl-1,9-diazatricyclo[6.3.1.0^4,12]dodeca-2,4,6,8(12)-tetraen-2-yl)-4-fluoro-3-methyl-pyrazolo[1,5-a]pyridin-6-yl]methanone], the IC50 lay in the range of 500 to 5000 nM in experiment [1] and 100 to 500 nM in experiment [2] (setting [3]).

In the case of `CCn1cc(Cn2c(-c3cc4cccc5c4n3CCN5CC(F)(F)F)nc3cc(C(=O)N4C[C@H](N)C[C@@H](F)C4)cc(F)c32)cn1` [Example 47, ((3R,5R)-3-amino-5-fluoropiperidin-1-yl)(1-((1-ethyl-1H-pyrazol-4-yl)methyl)-7-fluoro-2-(1-(2,2,2-trifluoroethyl)-2,3-dihydro-1H-pyrrolo[1,2,3-de]quinoxalin-5-yl)-1H-benzo[d]imidazol-5-yl)methanone], the concentration for half-maximal inhibition (IC50) in experiment [1] fell in the range of 500 to 5000 nM; in experiment [2] (setting [3]), 100 to 500 nM.

Take `COc1cc(C(=O)N2CCC[C@@H](N)C2)cc2nc(-c3cc4cccc5c4n3CCN5)n(C)c12` [Example 2, (R)-(3-aminopiperidin-1-yl)(2-(2,3-dihydro-1H-pyrrolo[1,2,3-de]quinoxalin-5-yl)-7-methoxy-1-methyl-1H-benzo[d]imidazol-5-yl)methanone]: the concentration for half-maximal inhibition (IC50) is 500 to 5000 nM in experiment [1]; 5430 nM in experiment [2] (PAD4 activity comparison, read-out: PAD4 Ammonia assay IC50); above 5000 nM in experiment [2] (setting [3]).

Consider `C#CCn1c(-c2cc3cccc4c3n2CCN4CCCO)nc2cc(C(=O)N3C[C@H](N)C[C@@H](F)C3)cc(OC)c21` [Example 49, ((3R,5R)-3-amino-5-fluoropiperidin-1-yl)(2-(1-(3-hydroxypropyl)-2,3-dihydro-1H-pyrrolo[1,2,3-de]quinoxalin-5-yl)-7-methoxy-1-(prop-2-yn-1-yl)-1H-benzo[d]imidazol-5-yl)methanone], for which the IC50 in experiment [1] was 500 to 5000 nM; in experiment [2] (setting [3]), 100 to 500 nM.

Consider `Cn1c(-c2cc3ccc4c(c3n2CC2CC2)NCCS4)nc2cc(C(=O)N3C[C@H]4CC[C@@H]3[C@@H]4N)cc(F)c21` [Example 161, ((1R,4R,7R)-7-amino-2-azabicyclo[2.2.1]heptan-2-yl)(2-(9-(cyclopropylmethyl)-1,2,3,9-tetrahydro-[1,4]thiazino[2,3-g]indol-8-yl)-7-fluoro-1-methyl-1H-benzo[d]imidazol-5-yl)methanone], for which the 50% inhibitory concentration (IC50) in experiment [1] and in experiment [2] (setting [3]) was at most 100 nM in each case.

Turning to `COc1cc(C(=O)N2C[C@H](N)C[C@@H](F)C2)cc2nc(-c3cc4cccc5c4n3CCN5CCCO)n(Cc3cnn(C)c3)c12` [Example 43, ((3R,5R)-3-amino-5-fluoropiperidin-1-yl)(2-(1-(3-hydroxypropyl)-2,3-dihydro-1H-pyrrolo[1,2,3-de]quinoxalin-5-yl)-7-methoxy-1-((1-methyl-1H-pyrazol-4-yl)methyl)-1H-benzo[d]imidazol-5-yl)methanone], the 50% inhibitory concentration (IC50) in experiment [1] was 500 to 5000 nM; in experiment [2] (setting [3]), at most 100 nM.

With `Cn1c(-c2cc3cccc4c3n2C(C2CC2)CN4CCCO)nc2cc(C(=O)N3C[C@H]4CC[C@@H]3[C@@H]4N)cc(F)c21` (mixture of isomers) [Example 111, [(1R,4R,7R)-7-amino-2-azabicyclo[2.2.1]heptan-2-yl]-[2-[11-cyclopropyl-9-(3-hydroxypropyl)-1,9-diazatricyclo[6.3.1.04,12]dodeca-2,4(12), 5,7-tetraen-2-yl]-7-fluoro-1-methyl-benzimidazol-5-yl]methanone], the IC50 in experiment [1] and in experiment [2] (setting [3]) was at most 100 nM in each case.

Take `COc1cc(C(=O)N2C[C@H](N)C[C@@H](F)C2)cc2nc(-c3cc4cccc5c4n3CCN5CCCO)n(Cc3cccs3)c12` [Example 37, ((3R,5R)-3-amino-5-fluoropiperidin-1-yl)(2-(1-(3-hydroxypropyl)-2,3-dihydro-1H-pyrrolo[1,2,3-de]quinoxalin-5-yl)-7-methoxy-1-(thiophen-2-ylmethyl)-1H-benzo[d]imidazol-5-yl)methanone]: the IC50 in experiment [1] is 100 to 500 nM; in experiment [2] (setting [3]), at most 100 nM.

For `C#CCn1c(-c2cc3cccc4c3n2C(CC)CN4CCCO)nc2cc(C(=O)N3C[C@H]4CC[C@@H]3[C@@H]4N)cc(F)c21` (stereo partly drawn) [Example 91, ((1R,4R,7R)-7-amino-2-azabicyclo[2.2.1]heptan-2-yl)(2-(3-ethyl-1-(3-hydroxypropyl)-2,3-dihydro-1H-pyrrolo[1,2,3-de]quinoxalin-5-yl)-7-fluoro-1-(prop-2-yn-1-yl)-1H-benzo[d]imidazol-5-yl)methanone], the IC50 in experiment [1] and in experiment [2] (setting [3]) was 100 to 500 nM in each case.

For the compound `CCC1CN(CCCO)c2cccc3cc(-c4nc5cc(C(=O)N6C[C@H]7CC[C@@H]6[C@@H]7N)cc(F)c5n4CC4COC4)n1c23` (stereo partly drawn) [Example 92, ((1R,4R,7R)-7-amino-2-azabicyclo[2.2.1]heptan-2-yl)(2-(3-ethyl-1-(3-hydroxypropyl)-2,3-dihydro-1H-pyrrolo[1,2,3-de]quinoxalin-5-yl)-7-fluoro-1-(oxetan-3-ylmethyl)-1H-benzo[d]imidazol-5-yl)methanone], the IC50 in experiment [1] was at most 100 nM; in experiment [2] (setting [3]), 100 to 500 nM.

In the case of `CCn1cc(Cn2c(-c3cc4cccc5c4n3CCN5CCCO)nc3cc(C(=O)N4C[C@H]5CC[C@@H]4[C@@H]5N)cc(F)c32)cn1` [Example 42, ((1R,4R,7R)-7-amino-2-azabicyclo[2.2.1]heptan-2-yl)(1-((1-ethyl-1H-pyrazol-4-yl)methyl)-7-fluoro-2-(1-(3-hydroxypropyl)-2,3-dihydro-1H-pyrrolo[1,2,3-de]quinoxalin-5-yl)-1H-benzo[d]imidazol-5-yl)methanone], the 50% inhibitory concentration (IC50) was in the range of 500 to 5000 nM in experiment [1] and 100 to 500 nM in experiment [2] (setting [3]).

Regarding `CCC1CNc2cccc3cc(-c4nc5cc(C(=O)N6C[C@H]7CC[C@@H]6[C@@H]7N)cc(F)c5n4C)n1c23` (stereo partly drawn) [Example 72, ((1R,4R,7R)-7-amino-2-azabicyclo[2.2.1]heptan-2-yl)(2-(3-ethyl-2,3-dihydro-1H-pyrrolo[1,2,3-de]quinoxalin-5-yl)-7-fluoro-1-methyl-1H-benzo[d]imidazol-5-yl)methanone], the IC50 in experiment [1] and in experiment [2] (setting [3]) was 100 to 500 nM each time.
